Molecular target: T1, HCMV polymerase (Human cytomegalovirus, UniProt P08546)
T1 construct: made in house; host or cells: recombinant baculovirus-infected SF-9 cells
Experiment: HCMV polymerase assay (modified scintillation proximity assay)
Format: biochemical
Conditions: modified SPA assay; compounds diluted in 100% DMSO; 4.5 mM DTT in polymerase buffer
Description: The HCMV polymerase assay is performed using a scintillation proximity assay (SPA) as described in several references, such as N. D. Cook, et al., Pharmaceutical Manufacturing International, pages 49-53 (1992); K. Takeuchi, Laboratory Practice, September issue (1992); U.S. Pat. No. 4,568,649 (1986); which are incorporated by reference herein. Reactions are performed in 96-well plates. The assay is conducted in 100 μl volume with 5.4 mM HEPES (pH 7.5), 11.7 mM KCl, 4.5 mM MgCl2, 0.36 mg/ml BSA, and 90 nM ^3H-dTTP. Assays are run with and without CHAPS, (3-[(3-Cholamidopropyl)-dimethylammonio]-1-propane-sulfonate) at a final concentration of 2 mM. HCMV polymerase is diluted in enzyme dilution buffer containing 50% glycerol, 250 mM NaCl, 10 mM HEPES (pH 7.5), 100 μg/ml BSA, and 0.01% sodium azide. The HCMV polymerase, which is expressed in recombinant baculovirus-infected SF-9 cells and purified according to literature procedures, is added at 10% (or 10 μl) of the final reaction volume, i.e., 100 μl. Compounds are diluted in 50% DMSO and 10 μl are added to each well. Control wells contain an equivalent concentration of DMSO. […] Plates are incubated 10 min. at 37 C., then equilibrated to room temperature, and counted on a Packard Topcount. Linear regressions are performed and IC50's are calculated using computer software. […]

T1 sequence (P08546 whole entry): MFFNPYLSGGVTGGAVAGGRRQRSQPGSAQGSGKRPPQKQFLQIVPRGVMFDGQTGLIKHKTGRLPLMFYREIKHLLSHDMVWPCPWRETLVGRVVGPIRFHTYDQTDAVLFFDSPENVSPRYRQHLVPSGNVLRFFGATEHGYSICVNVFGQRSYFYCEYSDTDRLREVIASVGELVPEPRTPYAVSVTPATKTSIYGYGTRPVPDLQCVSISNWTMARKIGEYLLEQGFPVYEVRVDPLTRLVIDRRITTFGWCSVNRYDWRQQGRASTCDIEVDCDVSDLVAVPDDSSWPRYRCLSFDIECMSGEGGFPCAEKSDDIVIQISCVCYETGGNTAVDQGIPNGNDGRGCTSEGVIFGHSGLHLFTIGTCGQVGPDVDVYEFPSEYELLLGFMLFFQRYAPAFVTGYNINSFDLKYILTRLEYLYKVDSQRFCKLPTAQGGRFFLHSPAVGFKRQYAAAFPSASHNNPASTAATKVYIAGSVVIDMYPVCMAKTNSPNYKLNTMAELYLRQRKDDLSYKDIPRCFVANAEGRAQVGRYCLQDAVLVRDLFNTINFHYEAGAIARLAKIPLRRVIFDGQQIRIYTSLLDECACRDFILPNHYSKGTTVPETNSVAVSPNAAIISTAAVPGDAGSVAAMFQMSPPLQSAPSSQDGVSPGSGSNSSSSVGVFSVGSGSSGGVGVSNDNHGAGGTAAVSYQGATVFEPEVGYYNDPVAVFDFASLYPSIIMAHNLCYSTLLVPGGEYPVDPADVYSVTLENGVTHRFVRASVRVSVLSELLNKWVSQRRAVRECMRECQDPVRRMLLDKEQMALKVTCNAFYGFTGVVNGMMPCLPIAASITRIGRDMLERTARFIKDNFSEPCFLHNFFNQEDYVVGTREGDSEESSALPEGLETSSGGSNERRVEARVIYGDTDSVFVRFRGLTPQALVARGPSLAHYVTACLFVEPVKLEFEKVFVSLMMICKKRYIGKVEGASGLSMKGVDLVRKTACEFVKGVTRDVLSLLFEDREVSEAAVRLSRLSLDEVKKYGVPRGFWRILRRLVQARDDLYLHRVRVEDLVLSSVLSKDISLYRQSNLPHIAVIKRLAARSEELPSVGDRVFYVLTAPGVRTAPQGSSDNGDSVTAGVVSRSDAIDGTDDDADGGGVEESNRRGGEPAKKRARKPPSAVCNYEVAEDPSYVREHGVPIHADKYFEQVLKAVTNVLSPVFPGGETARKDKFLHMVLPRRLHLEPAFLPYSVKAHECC

IC50: 0.06 µM
SMILES: O=C(NCc1ccc(Cl)cc1)c1cn2c3c(cc(CN4CCOCC4)cc3c1=S)OCC2 [Example 1, N-(4-chlorobenzyl)-9-(4-morpholinylmethyl)-7-thioxo-2,3-dihydro-7H-[1,4]oxazino[2,3,4-ij]quinoline-6-carboxamide]
